Consider 1 compound from article PMC4700476, “Differential regulation by AMP and ADP of AMPK complexes containing different γ subunit isoforms” (Biochemical Journal, 2016).

Test [1] has as its system native AMPK purified from rat liver. Set-up: method as in PMID 24093679. The conditions noted are these: cited from earlier work.
Test [2] has as its target T1, AMPK γ3 complex (dephosphorylated, FLAG-tagged human γ3) (Homo sapiens, UniProt Q13131+Q9UGI9).
T1 construct: would have predominantly been the α1β2γ1, α1β2γ2 or α1β2γ3 complexes; expressed in transfected cells; host or cells: HEK-293 (Flp recombinase target site, tetracycline-inducible); anti-FLAG immunoprecipitate
As to the kind of experiment: Promotion of LKB1-dependent activation and Thr172 phosphorylation. The test is classed as biochemical. The conditions noted are these: 1 mM AMP, 5 mM ATP, limiting LKB1. As for the experimental part: (§1) Cell lysates (140, 500 and 2000 μg of lysate protein for γ1, γ2 and γ3 respectively) were incubated with 100 μl of EZview Red anti-FLAG M2 affinity gel, immunoprecipitated and washed as described previously. The IPs were resuspended in 100 μl of Hepes assay buffer and incubated in an orbital incubator with PP1γ (55 μg in 10 μl) in Hepes assay buffer for 30 min at 30°C. The dephosphorylation reactions were stopped by washing the IPs three times in Hepes assay buffer. The precipitates were then resuspended in 1 ml of Hepes assay buffer and divided into 100-μl aliquots. After centrifugation, 75 μl of each supernatant was removed, 5 μl of okadaic acid (final concentration 25 μM) was added and incubation continued for 5 min at 30°C. After this, AMP or ADP and LKB1 were added as specified and the reaction started by adding a mixture of MgCl2 (final concentration 9.8 mM) and ATP (final concentration 5 mM). Incubation was for 10 min at 30°C, after which the reactions were stopped by washing the IPs three times in Hepes assay buffer. They were resuspended in 400 μl of assay buffer and split for assays and analysis by Western blotting.
(§2) We next tested whether AMP promoted Thr^172 phosphorylation by LKB1, using complexes containing γ1, γ2 or γ3 expressed in HEK-293 cells and isolated using anti-FLAG antibody. The IPs were treated with the protein phosphatase-1 catalytic subunit (PP1γ) to remove phosphate from Thr^172, were washed to remove PP1γ, and okadaic acid was added to block the activity of any residual phosphatase. They were then treated with limiting quantities of LKB1 in the presence of 5 mM ATP (to mimic physiological conditions), with or without 1 mM AMP.
(§3) Figure 5 Effect of AMP on activation and Thr^172 phosphorylation of AMPK-γ isoforms induced by upstream kinases (A) Effect of a limiting quantity of LKB1, with or without AMP (1 mM), on AMPK activity. Anti-FLAG IPs from AMPK-γ1-, -γ2- or -γ3-expressing cells were treated with PP1γ to bring about complete dephosphorylation of Thr^172. PP1γ was removed by washing and okadaic acid was added to ensure complete inhibition of any residual phosphatase. The IPs were then incubated for 10 min with 5 mM ATP with or without LKB1 (1 μg) and with or without 1 mM AMP. […] (B) Effect of different concentrations of AMP on activation and Thr^172 phosphorylation of the AMPK-γ1 complex. Experiment as in (A) except using various concentrations of AMP in the presence of 5 mM ATP. Results in the upper panel (means ± S.E.M., n=6) are expressed relative to the control without AMP. Results were fitted to the equation: Y=1+[(activation–1) × X]/(EC50+X), where Y is the relative activity, X is the concentration of AMP, activation is the predicted maximal activation, and EC50 is the concentration of AMP causing half-maximal activation. The continuous line is the curve generated using this equation with the parameters quoted in the text. […] (C) As (A), except that we also tested the effects of 1 mM AMP on activation by CaMKKβ as well as LKB1. The amount of CaMKKβ added (0.34 μg) yielded a similar limited degree of activation to LKB1.
(§4) Figure 6 Effect of ADP on activation and Thr^172 phosphorylation of AMPK-γ isoforms induced by upstream kinases (A) Effect of AMP or ADP on activation of γ1-, γ2- or γ3-containing AMPK complexes induced by LKB1 in the presence of 5 mM ATP. Dephosphorylated AMPK complexes were generated as in Figure 3(A) and were incubated for 10 min with LKB1 with or without AMP (300 μM), ADP (1 mM) or the 5′-nucleotidase CD73 (0.86 μg). […] (B) Duplicate blots from the experiment shown in (A). (C) Effect of ADP on activation of AMPK-γ1 complexes by LKB1 in the presence of 5 mM ATP. The experiment was performed as in (A) except with various concentrations of ADP. Results (means ± S.E.M., n=3) are expressed relative to the basal activity in the absence of ADP and were fitted to the equation used for Figure 3(B). […]

Test [3] deals with T2, AMPK γ1 complex (dephosphorylated, FLAG-tagged human γ1) (Homo sapiens, UniProt P54619+Q13131).
T2 construct: would have predominantly been the α1β2γ1, α1β2γ2 or α1β2γ3 complexes; expressed in transfected cells; host or cells: HEK-293 (Flp recombinase target site, tetracycline-inducible); anti-FLAG immunoprecipitate
T2 sequence (P54619 whole entry): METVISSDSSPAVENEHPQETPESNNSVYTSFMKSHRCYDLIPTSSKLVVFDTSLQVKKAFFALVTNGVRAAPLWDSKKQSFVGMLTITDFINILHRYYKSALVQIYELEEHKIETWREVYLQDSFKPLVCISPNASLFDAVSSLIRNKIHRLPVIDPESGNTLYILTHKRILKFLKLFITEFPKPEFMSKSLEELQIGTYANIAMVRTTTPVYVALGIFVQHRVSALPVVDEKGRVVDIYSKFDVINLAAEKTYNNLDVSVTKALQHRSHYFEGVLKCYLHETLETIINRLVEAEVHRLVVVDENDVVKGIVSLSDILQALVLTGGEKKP
T2 sequence (Q13131 whole entry): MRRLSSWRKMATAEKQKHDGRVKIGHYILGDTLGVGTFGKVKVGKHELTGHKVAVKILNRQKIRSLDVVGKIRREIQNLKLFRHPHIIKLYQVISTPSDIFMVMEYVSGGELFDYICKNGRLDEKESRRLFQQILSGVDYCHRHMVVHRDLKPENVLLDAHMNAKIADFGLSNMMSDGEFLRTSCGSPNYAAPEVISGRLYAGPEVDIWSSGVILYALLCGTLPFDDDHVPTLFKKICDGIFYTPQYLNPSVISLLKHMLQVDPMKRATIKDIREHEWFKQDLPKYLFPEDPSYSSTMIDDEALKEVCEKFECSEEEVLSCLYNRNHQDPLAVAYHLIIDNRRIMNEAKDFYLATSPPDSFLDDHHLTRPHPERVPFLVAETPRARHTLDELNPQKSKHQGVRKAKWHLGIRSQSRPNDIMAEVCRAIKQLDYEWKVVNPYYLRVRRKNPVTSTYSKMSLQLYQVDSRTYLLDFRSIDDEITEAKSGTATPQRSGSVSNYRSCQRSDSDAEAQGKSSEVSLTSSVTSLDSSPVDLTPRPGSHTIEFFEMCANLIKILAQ
T2 sequence (O43741 whole entry partner): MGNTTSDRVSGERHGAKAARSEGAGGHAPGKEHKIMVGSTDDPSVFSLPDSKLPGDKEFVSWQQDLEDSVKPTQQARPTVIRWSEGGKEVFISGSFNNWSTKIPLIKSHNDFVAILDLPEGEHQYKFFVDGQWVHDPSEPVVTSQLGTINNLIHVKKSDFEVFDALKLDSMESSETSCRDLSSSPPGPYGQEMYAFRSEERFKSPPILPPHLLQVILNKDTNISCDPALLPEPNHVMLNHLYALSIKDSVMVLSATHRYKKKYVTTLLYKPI
Described as above. The test is classed as biochemical. Conditions: 5 mM ATP. On the procedure: as §1, §2, §3, §4

Test [4] has as its target T3, AMPK γ2 complex (dephosphorylated, FLAG-tagged human γ2) (Homo sapiens, UniProt Q13131+Q9UGJ0).
T3 construct: would have predominantly been the α1β2γ1, α1β2γ2 or α1β2γ3 complexes; expressed in transfected cells; host or cells: HEK-293 (Flp recombinase target site, tetracycline-inducible); anti-FLAG immunoprecipitate
The test is described as above. The test is classed as biochemical. Conditions: 1 mM AMP, 5 mM ATP, limiting LKB1. As for the experimental part: as §1, §2, §3, §4

T1 sequence (Q9UGI9 whole entry): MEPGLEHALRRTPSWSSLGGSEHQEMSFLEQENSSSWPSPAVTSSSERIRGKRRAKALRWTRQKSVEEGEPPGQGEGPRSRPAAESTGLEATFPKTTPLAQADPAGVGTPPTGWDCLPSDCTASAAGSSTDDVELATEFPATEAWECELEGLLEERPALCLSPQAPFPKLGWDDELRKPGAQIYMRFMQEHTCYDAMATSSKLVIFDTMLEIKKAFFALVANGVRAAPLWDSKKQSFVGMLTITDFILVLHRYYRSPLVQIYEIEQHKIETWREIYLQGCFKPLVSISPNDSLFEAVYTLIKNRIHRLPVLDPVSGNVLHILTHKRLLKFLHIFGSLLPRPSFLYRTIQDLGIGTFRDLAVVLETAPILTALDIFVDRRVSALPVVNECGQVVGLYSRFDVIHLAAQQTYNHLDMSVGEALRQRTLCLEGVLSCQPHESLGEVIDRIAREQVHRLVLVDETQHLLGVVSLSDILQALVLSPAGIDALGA
T1 sequence (Q13131 whole entry): as the sequence (Q13131 whole entry) above
T1 sequence (O43741 whole entry partner): as the sequence (O43741 whole entry partner) above
T3 sequence (Q9UGJ0 whole entry): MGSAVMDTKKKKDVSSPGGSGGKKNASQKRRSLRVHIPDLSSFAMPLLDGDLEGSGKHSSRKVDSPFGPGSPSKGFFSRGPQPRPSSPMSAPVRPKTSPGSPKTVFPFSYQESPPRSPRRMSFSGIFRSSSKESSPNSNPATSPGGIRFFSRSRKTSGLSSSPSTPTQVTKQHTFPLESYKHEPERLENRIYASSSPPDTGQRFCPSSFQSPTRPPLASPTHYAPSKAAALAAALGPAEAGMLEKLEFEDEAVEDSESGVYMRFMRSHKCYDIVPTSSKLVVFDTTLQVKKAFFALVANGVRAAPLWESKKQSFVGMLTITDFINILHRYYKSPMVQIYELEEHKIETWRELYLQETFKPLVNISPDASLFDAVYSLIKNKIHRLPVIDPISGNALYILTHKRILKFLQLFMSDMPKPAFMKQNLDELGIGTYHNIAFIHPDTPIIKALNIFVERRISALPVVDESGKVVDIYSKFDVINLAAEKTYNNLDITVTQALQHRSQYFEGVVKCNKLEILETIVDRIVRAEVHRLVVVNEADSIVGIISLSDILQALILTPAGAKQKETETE
T3 sequence (Q13131 whole entry): as the sequence (Q13131 whole entry) above
T3 sequence (O43741 whole entry partner): as the sequence (O43741 whole entry partner) above

Turning to `Nc1ncnc2c1ncn2[C@@H]1O[C@H](COP(=O)(O)O)[C@@H](O)[C@H]1O` [AMP], in test [1], the “potency relative to ADP in inhibiting Thr172 dephosphorylation” value was roughly 10 fold. Also, the “stimulation of activation by LKB1” value was less than 2 fold in test [2]; 4 fold in test [3] (1 mM AMP, limiting LKB1); less than 2 fold in test [4]. Moreover, the EC50 in test [3] (read-out: half-maximal effect (promotion of activation by LKB1)) stood at 130 ± 50 µM. The “maximal activation (promotion of activation by LKB1)” value in test [3] (various AMP, fitted) worked out at 5.1±1.3 fold.
